According to paper PMC11462456 (Chemical Science, 2024):

Molecular target: T1, CRBN (Homo sapiens, UniProt Q96SW2)
T1 construct: western blot analysis of the levels of CRBN and VHL E3 ligase in cell lysate; endogenous in cells; host or cells: HEK293 (ATCC)
Assay: E3 ligase homo-degradation by western blot, CRBN
Type: cell-based
Details: HEK293 cells, 4 h, 0.1, 1 and 10 μM
Description: 4. Biological experiments
Primary antibodies used for western blotting included anti-human BRD2(1:2000, rabbit monoclonal, Abcam, ab139690), anti-human BRD3 (1:1000, rabbit monoclonal, Abcam, ab264420), anti-human BRD4 (E2A7X) (1:1000, rabbit monoclonal, Cell Signaling Technology, #13440), anti-human VHL (1:1000, rabbit polyclonal, Cell Signaling Technology, #68547), anti-human CRBN (D8H3S) (1:1000, rabbit polyclonal, Cell Signaling Technology, #71810), anti-human alpha Tubulin, clone B-5-1-2 (1:5000, mouse monoclonal, Merck Life Science, # 32-2500).Secondary antibodies used for western blot included: anti-mouse horseradish peroxidase-linked antibody (1:3000, sheep, GE Healthcare Life Sciences, #NA931V), and anti-rabbit horseradish peroxidase-linked antibody (1:8000, donkey, GE Healthcare Life Sciences, #NA934V). Reagent for degradation assay and compounds […]
dr. Serge Van Calenbergh, Ghent University).
4.2 Cell lines and culture
HEK293, A549, SKOV-3, HCT116 cells (ATCC)were grown in DMEM (Gibco),and all cells were supplemented with 10% (v/v) fetal bovine serum (FBS) (Sigma), […] penicillin/streptomycin solution (Thermo Fisher Scientific) and maintained at 37 °C and 5% CO2 in a humidified atmosphere. All cells used were tested monthly using the Mycoalert Mycoplasma Detection Kit (cat. no. LT07-318, Lonza) to exclude mycoplasma contamination.
4.3 Degradation assays by Western blot
General method of Western blot: Lysates were sonicated and centrifuged at 4 °C at 20000 g for 15 min, and the supernatants were transferred to new tubes. Protein concentration of cell lysates was measured using the DC Protein Assay kit (BIO-RAD) following manufacturer's instructions. Cell lysates were mixed with reducing sample buffer (0.5 M Tris-HCl (pH 6.8), 43% glycerol, 9.2% SDS, 5% 2-mercaptoethanol, 5% bromophenol blue) and boiled for 5 min at 95°C. […]
Figure S5 Homo-degradation effect in Dual-ligand PROTACs. […] Subsequently, cell lysates were prepared and the protein levels of CRBN or VHL E3 ligase were assessed by Western blotting. […]

T1 sequence (Q96SW2 whole entry): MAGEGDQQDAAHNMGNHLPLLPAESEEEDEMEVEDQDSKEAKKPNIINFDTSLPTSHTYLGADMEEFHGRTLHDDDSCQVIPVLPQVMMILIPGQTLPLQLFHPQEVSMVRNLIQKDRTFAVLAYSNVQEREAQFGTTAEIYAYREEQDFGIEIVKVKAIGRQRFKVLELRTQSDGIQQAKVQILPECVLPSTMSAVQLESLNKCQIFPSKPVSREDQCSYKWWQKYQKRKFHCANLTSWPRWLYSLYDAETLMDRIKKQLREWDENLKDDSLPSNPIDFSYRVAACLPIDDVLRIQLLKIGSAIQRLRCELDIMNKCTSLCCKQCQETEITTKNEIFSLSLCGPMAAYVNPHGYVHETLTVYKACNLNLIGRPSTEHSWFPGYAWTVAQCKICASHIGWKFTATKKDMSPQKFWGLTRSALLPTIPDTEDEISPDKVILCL

In the case of `Cc1sc2c(c1C)C(c1ccc(Cl)cc1)=N[C@@H](CC(=O)NCCOCCOCCNC(=O)C[C@H](NC(=O)COCCOCCOCCOCCn1cc(CCC(=O)N[C@@H](CC(=O)NCCOCCOCCNc3cccc4c3C(=O)N(C3CCC(=O)NC3=O)C4=O)C(=O)NCCOCCOCCNc3cccc4c3C(=O)N(C3CCC(=O)NC3=O)C4=O)nn1)C(=O)NCCOCCOCCNC(=O)C[C@@H]1N=C(c3ccc(Cl)cc3)c3c(sc(C)c3C)-n3c(C)nnc31)c1nnc(C)n1-2` (stereo partly shown) [2J2P], the “CRBN level (homo-degradation)” value is reported as “did not induce any significant decrease of CRBN”.
